In PubChem BioAssay (NCI):
Values joined by “and” are separate entries in the source; they are usually repeats but may differ in a detail not shown here. Equal entries are not always repeated.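 Interpolation was linear, between the two tested concentrations surrounding the appropriate level; five concentrations were tested over 48 hours in 96-well plates. At the GI50, growth is halved. TGI is the concentration that stops growth completely.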

Key:
Test in all cases: NCI anticancer screen, dose series, 48 h
MCF7 breast = system: MCF7 breast
MDA-MB-231 breast = system: MDA-MB-231 breast
786-0 renal = system: 786-0 renal
CCRF-CEM leukemia = system: CCRF-CEM leukemia
SR leukemia = system: SR leukemia
HCT-15 colon = system: HCT-15 colon
A549 NSCLC = system: A549 NSCLC
HOP-92 NSCLC = system: HOP-92 NSCLC
KM12 colon = system: KM12 colon
HCC-2998 colon = system: HCC-2998 colon

Row | SMILES | GI50 (MCF7 breast) | TGI (MCF7 breast) | GI50 (MDA-MB-231 breast) | TGI (MDA-MB-231 breast) | GI50 (786-0 renal) | TGI (786-0 renal) | GI50 (CCRF-CEM leukemia) | TGI (CCRF-CEM leukemia) | GI50 (SR leukemia) | TGI (SR leukemia) | GI50 (HCT-15 colon) | TGI (HCT-15 colon) | GI50 (A549 NSCLC) | TGI (A549 NSCLC) | GI50 (HOP-92 NSCLC) | TGI (HOP-92 NSCLC) | GI50 (KM12 colon) | TGI (KM12 colon) | GI50 (HCC-2998 colon) | TGI (HCC-2998 colon)
1 | COc1ccc2c(c1)c(-c1cc(-c3cn(C)c4ccc(OC)cc34)[nH]n1)cn2C | > 100 µM | > 100 µM | > 100 µM | > 100 µM | > 100 µM | > 100 µM | > 100 µM | > 100 µM | > 100 µM | > 100 µM | > 100 µM | > 100 µM | > 100 µM | > 100 µM | 60.7 µM | > 100 µM | > 100 µM | > 100 µM | > 100 µM | > 100 µM
2 | Cc1ccc(NCCNCC(O)CO)c2c(=O)c3ccccc3sc12 (configuration not stated) | 1.19 µM | 2.65 µM | 1.37 µM | 3 µM | 1.37 µM | 2.79 µM | 1.86 µM | 4.55 µM | 1.55 µM | 3.97 µM | 1.29 µM | 2.72 µM | 0.849 µM | 2.38 µM | 1.98 µM | 7.81 µM | 1.74 µM | 3.6 µM | 1.48 µM | 3.05 µM
3 | CCOc1cccc(/C=N/NC(=O)Cc2ccc(Nc3ccnc(C(F)(F)F)c3)cc2)c1O | 2.39 µM | > 100 µM | 3.15 µM | > 100 µM | 2.85 µM | 74.9 µM | 0.328 µM | 2.76 µM | 0.316 µM | 10.8 µM | 0.909 µM | > 100 µM | 4.09 µM | > 100 µM | 1.9 µM | 9.93 µM | 3.73 µM | 84.3 µM | 6.78 µM | 93.4 µM
4 | Nc1ccc2c(SCC(=O)Nc3ccccc3-c3ccccc3NC(=O)CSc3c4ccccc4nc4cc(N)ccc34)c3ccccc3nc2c1 |  | > 100 µM |  | > 84 µM |  | 56 µM |  | > 100 µM |  | > 100 µM |  | > 93.8 µM |  | > 100 µM |  | 79.9 µM |  | 65.8 µM |  | 61.7 µM
5 | CC(=O)Nc1ccc2c(c1)CN1C(=O)c3ccccc3C1=N2 | > 100 µM | > 100 µM | > 100 µM | > 100 µM | > 100 µM | > 100 µM | > 100 µM | > 100 µM | > 100 µM | > 100 µM | > 100 µM | > 100 µM | > 100 µM | > 100 µM | > 100 µM | > 100 µM | > 100 µM | > 100 µM | > 100 µM | > 100 µM
6 | O=C1c2c(O)ccc(O)c2C(=O)c2c(NCCNCCO)ccc(NCCNCCO)c21 | < 0.01 µM and < 0.005 µM and 0.00426 µM | 0.64 µM and 0.663 µM and 1.23 µM |  | 1.45 µM and 2.38 µM and 1.11 µM |  | 0.13 µM and 0.299 µM and 0.584 µM | 0.0139 µM |  | < 0.005 µM | 0.102 µM and 0.389 µM and 0.865 µM |  | 2.55 µM and 24 µM and 4.15 µM |  | 0.418 µM and 0.627 µM | 0.0312 µM | 0.773 µM and 0.425 µM and 0.0779 µM | 0.459 µM | 2.58 µM and 2.59 µM and 3.9 µM |  | 1.04 µM and 0.795 µM and 0.908 µM
7 | CC(=O)c1c(Nc2ccc(F)c(F)c2F)[nH]c2c(F)cc(F)cc2c1=O | 0.283 µM | 13.5 µM | 0.285 µM | 1.77 µM | 0.368 µM | 15.1 µM | 0.368 µM | > 100 µM | 0.45 µM | > 45.9 µM | 0.331 µM | 1.73 µM | 0.382 µM | > 41.8 µM | 0.116 µM | 0.466 µM | 0.342 µM | 5.57 µM | 0.378 µM | 13.6 µM
8 | Oc1cccc(-c2nc(N3CCOCC3)c3oc4ncccc4c3n2)c1 | 0.27 µM and 0.18 µM | > 100 µM and 11.9 µM | 0.34 µM and 0.3 µM | 54.5 µM and 33.2 µM | 0.231 µM and 0.246 µM | 1.67 µM and 1.28 µM | 0.517 µM and 0.461 µM | > 100 µM | 0.244 µM | 7.42 µM | 0.125 µM and 0.112 µM | > 100 µM | 0.317 µM and 0.225 µM |  | 0.0237 µM and 0.0243 µM | 0.131 µM and 0.216 µM | 0.286 µM and 0.297 µM | > 100 µM | 1.85 µM and 0.401 µM | 8.87 µM and > 33.9 µM
9 | COc1ccc(-c2cn(-c3cc(OC)c(OC)c(OC)c3)c(=O)n2-c2ccccc2)cc1 | 86 µM | > 100 µM | > 100 µM | > 100 µM | 38.9 µM | > 100 µM | > 100 µM | > 100 µM | 50.1 µM | > 100 µM | 52.6 µM | > 100 µM | > 100 µM | > 100 µM | 11.6 µM | 36.9 µM | > 100 µM | > 100 µM | > 100 µM | > 100 µM
10 | COc1ccc(-c2conc2-c2ccccc2)cc1 | 0.0865 µM | > 100 µM | 0.615 µM | > 27.5 µM | 1.28 µM | 53 µM | 0.292 µM | > 100 µM | 0.155 µM | > 100 µM | 0.099 µM | > 100 µM | 0.502 µM | > 100 µM | 4.58 µM | > 76.4 µM | 0.108 µM | 11 µM | 0.534 µM | 14.7 µM
11 | N#Cc1c(-c2ccc(Cl)cc2)csc1NC(=O)Nc1cccc(C(F)(F)F)c1 | 3.04 µM | 9.97 µM | 1.78 µM | 3.72 µM | 2 µM | 4.85 µM | 3.17 µM | 12 µM | 2.41 µM | 8.41 µM | 2.38 µM | 10.2 µM | 2.57 µM | 11.4 µM | 2.34 µM | 5.93 µM | 2.64 µM | 9.9 µM | 2.75 µM | 7.97 µM
12 | O=C(Nc1cccc(Cl)c1)c1cc(Cl)ccc1O | 1.75 µM | > 26.6 µM | 1.15 µM | 8.23 µM | 1.63 µM | 6.18 µM | 2.82 µM | 22 µM | 0.457 µM | 2.96 µM | 1.34 µM |  | 2.67 µM | > 79.3 µM | 0.169 µM | 0.571 µM | 2.39 µM | 6.87 µM | 2.94 µM | > 29.6 µM
13 | O=C1Nc2ccc(Br)cc2C1=Nc1ccc(Cl)cc1 |  | 27.1 µM |  | 45.9 µM |  | > 100 µM |  | 51.9 µM |  | > 100 µM |  | 36.8 µM |  | > 100 µM |  | > 100 µM |  | 24.8 µM |  | 39.7 µM
